Results: ChEMBL document CHEMBL5465560, “Selectivity Literature for EUbOPEN Chemogenomic Library” (2024)
Each block holds one compound with its values, some of them ahead of it.

Key:
[1] = test system: Tyrosine-protein kinase ABL1 (Homo sapiens), P00519 [Q252H]; experiment: (§1) Selectivity interaction (LanthaScreen Eu Kinase Binding Assay) EUB0001632a ABL1; conditions: at 10 µM
[2] = test system: Tyrosine-protein kinase ABL1 (Homo sapiens), P00519 [M351T]; experiment: as §1; conditions: at 10 µM
[3] = test system: Tyrosine-protein kinase ABL1 (Homo sapiens), P00519 [H396P]; experiment: as §1; conditions: at 10 µM
[4] = molecular target: T1, Mitogen-activated protein kinase kinase kinase 15 (Homo sapiens) (UniProt Q6ZN16); experiment: Selectivity interaction (KinomeScan (DiscoverX)) EUB0000666a MAP3K15; conditions: at 10 µM
T1 sequence (whole entry): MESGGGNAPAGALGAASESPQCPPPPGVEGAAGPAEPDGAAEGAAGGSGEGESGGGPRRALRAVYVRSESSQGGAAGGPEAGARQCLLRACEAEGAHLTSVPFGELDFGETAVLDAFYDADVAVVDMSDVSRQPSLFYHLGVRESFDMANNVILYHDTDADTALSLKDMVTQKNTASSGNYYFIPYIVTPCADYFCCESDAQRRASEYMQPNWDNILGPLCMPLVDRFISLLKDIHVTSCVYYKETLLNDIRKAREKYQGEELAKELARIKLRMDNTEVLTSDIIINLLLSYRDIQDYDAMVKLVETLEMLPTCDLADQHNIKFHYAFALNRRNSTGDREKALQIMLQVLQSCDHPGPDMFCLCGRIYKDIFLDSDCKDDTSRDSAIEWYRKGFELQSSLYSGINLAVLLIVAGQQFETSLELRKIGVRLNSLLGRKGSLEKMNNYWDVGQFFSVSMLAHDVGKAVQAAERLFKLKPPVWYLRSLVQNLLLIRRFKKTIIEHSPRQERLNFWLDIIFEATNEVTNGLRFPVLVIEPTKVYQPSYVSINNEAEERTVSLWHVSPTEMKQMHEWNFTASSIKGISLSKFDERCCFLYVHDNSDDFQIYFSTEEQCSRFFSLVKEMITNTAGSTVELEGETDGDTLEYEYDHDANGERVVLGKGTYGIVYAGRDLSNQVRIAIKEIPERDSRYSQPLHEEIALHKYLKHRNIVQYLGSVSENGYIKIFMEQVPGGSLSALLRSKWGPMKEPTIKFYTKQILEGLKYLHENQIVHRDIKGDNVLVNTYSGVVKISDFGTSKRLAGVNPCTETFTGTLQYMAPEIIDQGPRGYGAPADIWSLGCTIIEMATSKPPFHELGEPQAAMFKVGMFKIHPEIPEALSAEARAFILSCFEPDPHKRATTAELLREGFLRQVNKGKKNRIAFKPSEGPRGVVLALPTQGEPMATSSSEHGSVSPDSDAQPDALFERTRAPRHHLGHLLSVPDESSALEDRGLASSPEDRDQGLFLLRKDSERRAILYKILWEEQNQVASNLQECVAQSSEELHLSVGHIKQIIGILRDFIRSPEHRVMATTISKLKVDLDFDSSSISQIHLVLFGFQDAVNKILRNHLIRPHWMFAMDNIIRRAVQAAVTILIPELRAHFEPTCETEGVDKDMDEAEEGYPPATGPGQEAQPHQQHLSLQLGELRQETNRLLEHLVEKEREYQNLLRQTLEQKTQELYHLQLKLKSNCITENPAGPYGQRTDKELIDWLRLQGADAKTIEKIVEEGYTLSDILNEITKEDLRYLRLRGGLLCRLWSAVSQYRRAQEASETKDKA

[5] = molecular target: Mitotic checkpoint serine/threonine-protein kinase BUB1 (Homo sapiens, UniProt O43683); experiment: Selectivity interaction (KinomeScan (DiscoverX)) EUB0000607a BUB1; conditions: at 10 µM
Chain of Mitotic checkpoint serine/threonine-protein kinase BUB1 (O43683 whole entry, looked up): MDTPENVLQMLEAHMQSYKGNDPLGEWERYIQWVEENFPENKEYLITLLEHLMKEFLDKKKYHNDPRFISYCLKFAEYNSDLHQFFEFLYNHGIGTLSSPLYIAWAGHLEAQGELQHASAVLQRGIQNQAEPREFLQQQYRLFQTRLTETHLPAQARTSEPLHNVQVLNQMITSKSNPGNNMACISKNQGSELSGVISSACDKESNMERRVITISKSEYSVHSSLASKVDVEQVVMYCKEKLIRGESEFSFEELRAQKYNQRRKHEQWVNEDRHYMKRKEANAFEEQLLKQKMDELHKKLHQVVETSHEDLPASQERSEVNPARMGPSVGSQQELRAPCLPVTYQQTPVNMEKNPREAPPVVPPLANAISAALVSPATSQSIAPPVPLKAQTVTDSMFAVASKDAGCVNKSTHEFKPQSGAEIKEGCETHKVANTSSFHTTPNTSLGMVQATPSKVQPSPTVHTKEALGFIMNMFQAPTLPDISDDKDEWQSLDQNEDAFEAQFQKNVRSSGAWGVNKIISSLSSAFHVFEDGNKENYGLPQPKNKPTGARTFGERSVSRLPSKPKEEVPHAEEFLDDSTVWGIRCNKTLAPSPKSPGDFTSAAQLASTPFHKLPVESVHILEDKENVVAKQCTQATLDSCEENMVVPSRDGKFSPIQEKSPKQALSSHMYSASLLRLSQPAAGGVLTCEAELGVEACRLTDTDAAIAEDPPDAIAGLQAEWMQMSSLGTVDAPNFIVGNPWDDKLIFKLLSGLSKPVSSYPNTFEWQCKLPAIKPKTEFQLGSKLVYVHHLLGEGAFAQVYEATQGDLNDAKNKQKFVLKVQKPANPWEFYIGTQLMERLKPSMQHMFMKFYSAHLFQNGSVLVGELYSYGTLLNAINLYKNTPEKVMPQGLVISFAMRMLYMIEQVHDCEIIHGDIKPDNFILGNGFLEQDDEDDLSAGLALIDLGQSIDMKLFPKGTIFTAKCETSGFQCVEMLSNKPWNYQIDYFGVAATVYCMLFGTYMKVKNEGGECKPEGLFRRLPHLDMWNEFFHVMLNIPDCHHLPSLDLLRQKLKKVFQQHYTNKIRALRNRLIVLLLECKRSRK

[6] = molecular target: T2, Serine/threonine-protein kinase Chk1 (Homo sapiens) (UniProt O14757); experiment: Selectivity interaction (KinomeScan (DiscoverX)) EUB0000607a CHEK1; conditions: at 10 µM
T2 sequence (whole entry): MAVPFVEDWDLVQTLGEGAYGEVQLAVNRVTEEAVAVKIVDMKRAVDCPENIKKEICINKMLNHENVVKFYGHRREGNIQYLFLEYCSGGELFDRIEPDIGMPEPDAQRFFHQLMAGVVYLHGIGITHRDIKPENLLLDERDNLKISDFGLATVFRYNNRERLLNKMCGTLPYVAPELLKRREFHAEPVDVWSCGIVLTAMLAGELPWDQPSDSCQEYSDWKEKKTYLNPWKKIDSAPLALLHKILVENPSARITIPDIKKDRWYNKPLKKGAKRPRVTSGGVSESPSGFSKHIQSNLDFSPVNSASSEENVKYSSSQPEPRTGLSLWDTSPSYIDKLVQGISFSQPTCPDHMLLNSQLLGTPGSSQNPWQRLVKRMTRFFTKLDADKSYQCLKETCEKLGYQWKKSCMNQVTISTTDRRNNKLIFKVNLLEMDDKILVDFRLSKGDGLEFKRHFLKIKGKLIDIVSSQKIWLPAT

[7] = molecular target: Calcium/calmodulin-dependent protein kinase type 1 (Homo sapiens) (UniProt Q14012); experiment: Selectivity interaction (ActivX KiNativ screen (kinase selectivity in THP-1 cell lysates)) EUB0000639a CAMK1; assay type: subcellular; conditions: lysate, at 1 µM
Chain of Calcium/calmodulin-dependent protein kinase type 1 (Homo sapiens) (Q14012 whole entry, looked up): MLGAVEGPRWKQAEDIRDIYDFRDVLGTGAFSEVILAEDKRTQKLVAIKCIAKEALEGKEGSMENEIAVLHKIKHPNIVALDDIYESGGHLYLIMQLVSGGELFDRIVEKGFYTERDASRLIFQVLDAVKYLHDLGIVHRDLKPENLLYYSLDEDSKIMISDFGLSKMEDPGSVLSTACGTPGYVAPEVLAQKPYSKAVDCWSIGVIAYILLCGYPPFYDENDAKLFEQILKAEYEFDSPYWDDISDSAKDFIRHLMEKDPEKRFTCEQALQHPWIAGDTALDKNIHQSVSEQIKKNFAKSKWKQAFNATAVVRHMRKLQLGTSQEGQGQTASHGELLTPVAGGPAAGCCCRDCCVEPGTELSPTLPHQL

[8] = molecular target: Cyclin-dependent kinase 15 (Homo sapiens) (UniProt Q96Q40); experiment: Selectivity interaction (KinomeScan (DiscoverX)) EUB0000655a CDK15; conditions: at 10 µM
Chain of Cyclin-dependent kinase 15 (Homo sapiens) (Q96Q40 whole entry): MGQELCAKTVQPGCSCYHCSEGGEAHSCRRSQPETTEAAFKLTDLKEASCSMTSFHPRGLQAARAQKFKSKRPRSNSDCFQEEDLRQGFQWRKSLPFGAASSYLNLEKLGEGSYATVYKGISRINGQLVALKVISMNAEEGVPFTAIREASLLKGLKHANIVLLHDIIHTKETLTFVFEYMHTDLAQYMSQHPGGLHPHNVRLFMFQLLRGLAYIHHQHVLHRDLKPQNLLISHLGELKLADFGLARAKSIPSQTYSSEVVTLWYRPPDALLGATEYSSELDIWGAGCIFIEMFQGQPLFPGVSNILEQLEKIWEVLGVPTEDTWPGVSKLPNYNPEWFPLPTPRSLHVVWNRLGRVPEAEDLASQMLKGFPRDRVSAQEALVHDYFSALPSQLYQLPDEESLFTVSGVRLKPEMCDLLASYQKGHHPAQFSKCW

[9] = molecular target: T3, Inhibitor of nuclear factor kappa-B kinase subunit alpha (Homo sapiens) (UniProt O15111); experiment: Selectivity interaction (KinomeScan (DiscoverX)) EUB0001079a CHUK; conditions: at 1 µM
T3 sequence (whole entry): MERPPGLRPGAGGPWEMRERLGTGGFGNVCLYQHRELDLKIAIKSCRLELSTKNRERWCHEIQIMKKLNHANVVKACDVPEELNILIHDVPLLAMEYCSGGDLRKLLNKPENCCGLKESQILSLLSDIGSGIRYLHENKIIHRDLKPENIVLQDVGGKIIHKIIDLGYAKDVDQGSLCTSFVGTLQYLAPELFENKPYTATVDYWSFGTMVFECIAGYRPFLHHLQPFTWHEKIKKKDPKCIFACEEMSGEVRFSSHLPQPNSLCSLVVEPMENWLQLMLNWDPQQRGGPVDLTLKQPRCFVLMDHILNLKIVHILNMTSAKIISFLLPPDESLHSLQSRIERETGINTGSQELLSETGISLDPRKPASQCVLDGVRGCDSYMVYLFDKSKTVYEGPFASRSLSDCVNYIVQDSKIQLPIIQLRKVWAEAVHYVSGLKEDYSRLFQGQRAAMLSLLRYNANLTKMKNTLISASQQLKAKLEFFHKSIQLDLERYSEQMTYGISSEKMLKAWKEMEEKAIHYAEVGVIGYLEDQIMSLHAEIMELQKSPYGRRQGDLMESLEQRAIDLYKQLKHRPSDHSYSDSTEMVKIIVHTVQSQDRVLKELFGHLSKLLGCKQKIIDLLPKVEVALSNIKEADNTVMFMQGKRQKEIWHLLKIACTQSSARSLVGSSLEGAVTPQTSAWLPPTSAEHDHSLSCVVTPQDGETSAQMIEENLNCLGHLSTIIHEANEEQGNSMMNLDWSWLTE

% of inhibition [1]: -18.3% | % of inhibition [2]: -10.1% | % of inhibition [3]: -3.27%
SMILES: Cn1cc(-n2cnc3c(NCc4nc5cc(Cl)c(Cl)cc5[nH]4)nc(N4CCOCC4)nc32)cn1

SMILES: O=C(NOC[C@H](O)CO)c1ccc(F)c(F)c1Nc1ccc(I)cc1F
% of control [4]: 100%

SMILES: CNC(=O)Nc1ccc(-c2nc(N3CC4CCC(C3)O4)c3cnn(C4CCC5(CC4)OCCO5)c3n2)cc1
% of control [5]: 52% | % of control [6]: 100%

% of inhibition [7]: -14.5%
SMILES: CC[C@@H]1[C@H](F)C(=O)N[C@@H]1COc1nccc2cc(C(N)=O)c(OC)cc12 [ZIMLOVISERTIB]

SMILES: CN(C)CCOc1ccc(-c2nc(-c3ccncc3)c(-c3ccc4c(c3)CC/C4=N\O)[nH]2)cc1
% of control [8]: 100%

SMILES: Nc1cnc(N2CCc3cc(S(=O)(=O)Nc4c(F)cc(Cl)cc4F)cc(N4CCCC4=O)c32)nc1 [TP-020n]
% of control [9]: 100%
